Measurements from US10294202B2, “Pyrrolidinones as herbicides” (FMC Corporation, priority 2013, dated 2019).

Key:
johnsongrass = assay: Test C pre-/postemergence herbicide test; type: in vivo, Sorghum halepense; details: Preemergence; for Plant response rating (scale of 0 to 100), Johnsongrass: 250 g ai/ha
Procedure, shortened: (§1)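 Greenhouse plants scored visually against untreated controls 13–15 days after treatment, 0 = no effect, 100 = complete control. Test chemicals in a non-phytotoxic solvent with surfactant were applied either to soil (loam/sand) at planting or to foliage of 1- to 4-leaf plants, 2–18 cm tall.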

giant foxtail = assay: Test A pre-/postemergence herbicide test; type: in vivo, Setaria faberii
Procedure, shortened: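 Visual 0–100 ratings (100 = complete control) made about 10 days after treatment, greenhouse-held plants compared with untreated controls. Treatments: postemergence sprays on one- to two-leaf plants (2–10 cm tall) and preemergence directed soil sprays after planting in loam–sand, chemicals formulated in non-phytotoxic solvent containing surfactant.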

oat, wild = assay: Test C pre-/postemergence herbicide test; type: in vivo, Avena fatua; details: Preemergence
Text: Seeds of plant species selected from blackgrass (Alopecurus myosuroides), ryegrass, Italian (Italian ryegrass, Lolium multiflorum), wheat (winter wheat, Triticum aestivum), galium (catchweed bedstraw, Galium aparine), corn (Zea mays), crabgrass, large (large crabgrass, Digitaria sanguinalis), foxtail, giant (giant foxtail, Setaria faberii), johnsongrass (Sorghum halepense), lambsquarters (Chenopodium album), morningglory (Ipomoea coccinea), nutsedge, yellow (yellow nutsedge, Cyperus esculentus), pigweed (Amaranthus retroflexus), ragweed (common ragweed, Ambrosia elatior), soybean (Glycine max), barnyardgrass (Echinochloa crus-galli), oilseed rape (Brassica napus), waterhemp (common waterhemp, Amaranthus rudis), kochia (Kochia scoparia), oat, wild (wild oat, Avena fatua), surinam grass (Brachiaria decumbens), foxtail, green (green foxtail, Setaria viridis), goosegrass (Eleusine indica), bromegrass, downy (downy bromegrass, Bromus tectorum), nightshade (eastern black nightshade, Solanum ptycanthum), cocklebur (common cocklebur, Xanthium strumarium), cupgrass, woolly (woolly cupgrass, Eriochloa villosa), bermudagrass (Cynodon dactylon), sunflower, (common oilseed sunflower, Helianthus annuus), Russian thistle (Salsola kali) and velvetleaf (Abutilon theophrasti) were planted into a blend of loam soil and sand and treated preemergence with test chemicals formulated in a non-phytotoxic solvent mixture which included a surfactant. At the same time, plants selected from these crop and weed species and also barley (winter barley, Hordeum vulgare), […]), chickweed (common chickweed, Stellaria media), deadnettle (henbit deadnettle, Lamium amplexicaule), and canarygrass (littleseed canarygrass, Phalaris minor) were planted in pots containing Redi-Earth® planting medium (Scotts Company, 14111 Scottslawn Road, Marysville, Ohio 43041) comprising spaghnum peat moss, vermiculite, wetting agent and starter nutrients and treated with postemergence applications of test chemicals formulated in the same manner. Plants ranged in height from 2 to 18 cm (1- to 4-leaf stage) for postemergence treatments. Treated plants and controls were maintained in a greenhouse for 13 to 15 days, after which time all species were compared to controls and visually evaluated. Plant response ratings, summarized in Table C, are based on a scale of 0 to 100 where 0 is no effect and 100 is complete control. A dash (-) response means no test result.

crabgrass, large = assay: Test C pre-/postemergence herbicide test; type: in vivo, Digitaria sanguinalis; details: Preemergence
Procedure, shortened: as §1

ryegrass, Italian = assay: Test C pre-/postemergence herbicide test; type: in vivo, Lolium multiflorum; details: Preemergence; for Plant response rating (scale of 0 to 100), Ryegrass, Italian: 250 g ai/ha
Procedure, shortened: as §1

ragweed = assay: Test C pre-/postemergence herbicide test; type: in vivo, Ambrosia elatior; details: Preemergence; for Plant response rating (scale of 0 to 100), Ragweed: 250 g ai/ha
Procedure, shortened: as §1

velvetleaf = assay: Test C pre-/postemergence herbicide test; type: in vivo, Abutilon theophrasti; details: Preemergence; for Plant response rating (scale of 0 to 100), Velvetleaf: 250 g ai/ha
Procedure, shortened: as §1

waterhemp = assay: Test C pre-/postemergence herbicide test; type: in vivo, Amaranthus rudis; details: Preemergence; for Plant response rating, Waterhemp: 125 g ai/ha; for Plant response rating (scale of 0 to 100), Waterhemp: 250 g ai/ha
Procedure, shortened: as §1

sedge, umbrella = assay: Test B flooded paddy test; type: in vivo, Cyperus difformis; details: Flood, scale of 0 to 100 where 0 is no effect and 100 is complete control
Procedure, shortened: (§2)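 Scoring: visual, compared with untreated controls, 0 = no effect through 100 = complete control, taken 13 to 15 days after treatment in the greenhouse. Compounds had been added to paddy water over soil flooded 3 cm deep at the plants' 2-leaf stage.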

barnyardgrass [1] = assay: Test B flooded paddy test; type: in vivo, Echinochloa crus-galli; details: Flood, scale of 0 to 100 where 0 is no effect and 100 is complete control
Procedure, shortened: as §2

barnyardgrass [2] = assay: Test C pre-/postemergence herbicide test; type: in vivo, Echinochloa crus-galli; details: Preemergence; for Plant response rating, Barnyardgrass: 125 g ai/ha; for Plant response rating (scale of 0 to 100; 0 is no effect, 100 is complete control), Barnyardgrass: 250 g ai/ha
Procedure, shortened: as §1

[3] = 125 g ai/ha, scale 0 to 100 (0 no effect, 100 complete control)
[4] = Postemergence, 500 g ai/ha, 0 to 100 scale (0 no effect, 100 complete control)
[5] = 31 g ai/ha, scale 0 to 100, 0 is no effect and 100 is complete control
[6] = 62 g ai/ha, scale 0 to 100 (0 no effect, 100 complete control)
[7] = scale 0 to 100 (0 no effect, 100 complete control)
[8] = Postemergence, 125 g ai/ha, 0 to 100 scale, 0 is no effect, 100 is complete control
[9] = Preemergence, 125 g ai/ha, 0 to 100 scale where 0 is no effect and 100 is complete control
[10] = preemergence, 500 g ai/ha, 0 to 100 scale, 0 is no effect and 100 is complete control

| Structure (SMILES) | Plant response rating, Johnsongrass (johnsongrass; [3]) | Plant response rating, Foxtail, Giant (giant foxtail; [4]) | Plant response rating, Crabgrass, Large (crabgrass, large; [3]) | Plant response rating, Ragweed (ragweed; [3]) | Plant response rating, Velvetleaf (velvetleaf; [3]) | Johnsongrass plant response rating (johnsongrass; [5]) | Johnsongrass plant response rating (johnsongrass; [6]) | Plant response rating (scale of 0 to 100), Johnsongrass (johnsongrass) | Waterhemp plant response rating (waterhemp; [6]) | Plant response rating (scale of 0 to 100), Waterhemp (waterhemp) | Plant response rating, Foxtail, Giant (giant foxtail; [9]) | Crabgrass, Large plant response rating (crabgrass, large; [5]) | Crabgrass, Large plant response rating (crabgrass, large; [6]) | Plant response rating (scale of 0 to 100), Crabgrass, Large (crabgrass, large; 250 g ai/ha) | Ryegrass, Italian plant response rating (ryegrass, Italian; [6]) | Plant response rating (scale of 0 to 100), Ryegrass, Italian (ryegrass, Italian) | Barnyardgrass plant response rating (barnyardgrass [2]; [5]) | Barnyardgrass plant response rating (barnyardgrass [2]; [6]) | Plant response rating, Barnyardgrass (barnyardgrass [2]; [7]) | Plant response rating (scale of 0 to 100; 0 is no effect, 100 is complete control), Barnyardgrass (barnyardgrass [2]) | also measured |
| --- | --- | --- | --- | --- | --- | --- | --- | --- | --- | --- | --- | --- | --- | --- | --- | --- | --- | --- | --- | --- | --- |
| O=C1NCC(c2ccc(F)cc2)C1C(=O)Nc1ccccc1F (racemic) [Compound 16] | 0 | 90 | 100 | 0 | 0 | – | – | – | – | – | – | – | – | – | – | – | – | – | – | – | Plant response rating, Johnsongrass (johnsongrass; 62 g ai/ha, scale 0 to 100): 0; Plant response rating, Foxtail, Giant (giant foxtail; Postemergence, 125 g ai/ha, 0 to 100 scale, 0 no effect, 100 complete control): 60; Foxtail, Giant plant response rating (giant foxtail; Preemergence, 125 g ai/ha, visual rating on 0 to 100 scale (0 no effect, 100 complete control)): 90; Plant response rating, Foxtail, Giant (giant foxtail; preemergence, 500 g ai/ha, 0 to 100 scale): 90; Plant response rating, Oat, Wild (oat, wild; 62 g ai/ha, scale 0 to 100): 5; Plant response rating, Oat, Wild (oat, wild; [3]): 15; Crabgrass, Large plant response rating (crabgrass, large; 31 g ai/ha, scale 0 to 100 (0 no effect, 100 complete control)): 95; Plant response rating, Crabgrass, Large (crabgrass, large; 62 g ai/ha, scale 0 to 100): 95; Plant response rating, Crabgrass, Large (crabgrass, large; 250 g ai/ha, scale 0 to 100 (0 no effect, 100 complete control)): 100; Plant response rating, Ryegrass, Italian (ryegrass, Italian; 62 g ai/ha, scale 0 to 100): 0; Plant response rating, Ragweed (ragweed; 62 g ai/ha, scale 0 to 100): 0; Plant response rating, Velvetleaf (velvetleaf; 62 g ai/ha, scale 0 to 100): 0 |
| O=C1NCC(c2ccc(C(F)(F)F)c(F)c2)C1C(=O)Nc1cccc(F)c1F (racemic) [Compound 247] | 10 | 80 | 98 | 70 | 30 | 0 | 0 | 5 | 100 | 85 | 80 | 95 | 95 | 100 | 35 | 50 | 15 | 85 | 90 | 90 | Waterhemp plant response rating (waterhemp; [5]): 70; Plant response rating, Waterhemp (waterhemp; [7]): 100; Plant response rating, Foxtail, Giant (giant foxtail; [8]): 50; Plant response rating, Foxtail, Giant (giant foxtail; [10]): 90; Plant response rating, Sedge, Umbrella (sedge, umbrella; 1000 g ai/ha): 0; Ryegrass, Italian plant response rating (ryegrass, Italian; [5]): 0; Plant response rating, Ryegrass, Italian (ryegrass, Italian; [3]): 40; Plant response rating, Barnyardgrass (barnyardgrass [1]; 1000 g ai/ha): 85; Ragweed plant response rating (ragweed; [5]): 100; Ragweed plant response rating (ragweed; [6]): 85; Plant response rating (scale of 0 to 100), Ragweed (ragweed): 98; Velvetleaf plant response rating (velvetleaf; [5]): 0; Velvetleaf plant response rating (velvetleaf; [6]): 20; Plant response rating (scale of 0 to 100), Velvetleaf (velvetleaf): 25 |
| O=C1NCC(c2cccc(Br)c2)C1C(=O)Nc1ccccc1F (stereo not shown) [Compound 307] | – | 80 | – | – | – | 0 | 0 | 45 | 0 | 0 | 80 | 90 | 95 | 100 | 0 | 10 | 40 | 70 | 85 | 95 | Plant response rating, Johnsongrass (johnsongrass; 125 g ai/ha, scale 0 to 100): 0; Plant response rating, Waterhemp (waterhemp; scale 0 to 100): 0; Plant response rating, Foxtail, Giant (giant foxtail; Postemergence, 125 g ai/ha, visual rating on 0 to 100 scale (0 no effect, 100 complete control), approx. 10 days): 70; Foxtail, Giant plant response rating (giant foxtail; Preemergence, 500 g ai/ha, visual rating on 0 to 100 scale (0 no effect, 100 complete control)): 90; Plant response rating, Crabgrass, Large (crabgrass, large; 125 g ai/ha, scale 0 to 100): 95; Plant response rating, Sedge, Umbrella (sedge, umbrella; 500 g ai/ha): 0; Plant response rating, Ryegrass, Italian (ryegrass, Italian; 125 g ai/ha, scale 0 to 100): 5; Plant response rating, Barnyardgrass (barnyardgrass [1]; 500 g ai/ha): 65; Ragweed plant response rating (ragweed; [6]): 0; Plant response rating, Ragweed (ragweed; 125 g ai/ha, scale 0 to 100): 0; Plant response rating (scale of 0 to 100), Ragweed (ragweed): 35; Velvetleaf plant response rating (velvetleaf; [6]): 0; Plant response rating, Velvetleaf (velvetleaf; 125 g ai/ha, scale 0 to 100): 0; Plant response rating (scale of 0 to 100), Velvetleaf (velvetleaf): 0 |
| O=C1NCC(c2ccc(C(F)(F)F)nc2)C1C(=O)Nc1ccccc1F (racemic) [Compound 262] | 0 | 70 | 100 | 10 | 0 | 0 | 0 | 0 | 50 | 50 | 80 | 95 | 98 | 100 | 0 | 0 | 45 | 70 | 90 | 95 | Waterhemp plant response rating (waterhemp; [5]): 0; Plant response rating, Waterhemp (waterhemp; [7]): 60; Plant response rating, Foxtail, Giant (giant foxtail; [8]): 60; Plant response rating, Foxtail, Giant (giant foxtail; [10]): 90; Plant response rating, Sedge, Umbrella (sedge, umbrella; 1000 g ai/ha): 0; Ryegrass, Italian plant response rating (ryegrass, Italian; [5]): 0; Plant response rating, Ryegrass, Italian (ryegrass, Italian; [3]): 0; Plant response rating, Barnyardgrass (barnyardgrass [1]; 1000 g ai/ha): 20; Ragweed plant response rating (ragweed; [5]): 0; Ragweed plant response rating (ragweed; [6]): 20; Plant response rating (scale of 0 to 100), Ragweed (ragweed): 75; Velvetleaf plant response rating (velvetleaf; [5]): 0; Velvetleaf plant response rating (velvetleaf; [6]): 0; Plant response rating (scale of 0 to 100), Velvetleaf (velvetleaf): 0 |
